Values after ≈ are worked out from the molar mass of the structure shown. Where a SMILES comes first, the peptide text is derived from it.
Assays:
[1] = Solubility; type: physicochemical; conditions: under the haemolysis assay conditions (blood diluted with PBS, compound added from DMSO)
Description: Mixing 1 or 2 with CuCl2 or CuCl provided green or blue complexes respectively. […] The blue complexes from the addition of CuCl gave very broad NMR spectra even after preparing fresh samples, which was ascribed to in situ oxidation of Cu(I); Cu(I)(TPA) complexes are very efficient one electron donors and will rapidly reduce alkyl halides[27] and oxygen.[28] Furthermore these blue products gave green solids when dried (see the ESI, Fig. S2 ^†).
Although alamethicin is a very active channel former, its use in the clinic is hampered by its high haemolytic activity.[52] […] It is known that the haemolytic activity of amphipathic peptides, including alamethicin, decreases substantially on a reduction of peptide hydrophobicity and hydrophobic moment.[56]

[2] = Planar bilayer conductance (PBC) studies; type: biochemical; conditions: +100 or –100 mV, 50 s sweeps, up to 2 h, final concentration 8.3 µM, 20 mM MOPS, 100 mM NaCl or KCl, pH 7.4
Experimental: The observation of discrete conductance events can indicate channel formation and provide information on the nature of these channels.
PBC experiments were performed in a custom-built cell, with either 2 or Cu(II)[2]Cl2 (5–10 μL of a 1 mM solution in MeOH) added to the ground well. Characterisation sweeps were continued for 2 h, or until substantial channel-forming activity was observed. Single channel experiments were conducted under an applied potential of +100 or –100 mV in 50 s sweeps. […] Large current levels and reproducible well-defined quantized steps from 0.5 to 5 ms in duration (similar to the “flicker” behaviour described by Chui and Fyles[42]) were measured (Fig. 6). […] This could imply [Cu(II)[2]Cl]^+ cations[44] are involved in the channel-forming species. Channel events have multilevel conductances, both at +100 mV (∼0.08 nS, ∼0.14 nS) and at –100 mV potentials (∼0.08 nS, ∼0.15 nS).
The blue product from the addition of CuCl to 2 was also assessed using PBC experiments. […] In addition, much longer lived “square topped” openings could also be observed (Fig. 6b). These very regular well-defined quantized current steps were open for up to 20 ms at +100 mV, with multiple stepwise increases in conductance with ∼0.18 nS increments.[46] […]

Structure (SMILES): CC(C)(NC(=O)C(C)(C)NC(=O)C(C)(C)NC(=O)C(C)(C)NC(=O)C(C)(C)n1cc(CN(Cc2ccccn2)Cc2ccccn2)nn1)C(=O)NC(C)(C)C(=O)NC(C)(C)C(=O)NC(C)(C)C(=O)OCC[Si](C)(C)C [foldamer 2] (HELM PEPTIDE1{[CC(C)(C(=O)[*:2])n1cc(CN(Cc2ccccn2)Cc2ccccn2)nn1].[Aib].[Aib].[Aib].[Aib].[Aib].[Aib].[Aib].[C[Si](C)(C)CCO[*:1]]}$$$$V2.0)
- solubility limit [1]: 20 µM (≈ 21.2 µg/mL)
- ion channel behaviour in PBC [2]: did not display any ion channel behaviour
